Where no end group is shown, it is not given here.
System: filter-sterile supernatant of D. japonica MF79
Assay: Peptide quantification by mass spectrometry after incubation in cell-free supernatant of D. japonica MF79
Type: in vitro ADME, Dyella japonica MF79
Settings: for peptide degradation in culture supernatant of wild-type D. japonica MF79 / peptide depletion in supernatant of the D. japonica MF79 gspD mutant: 1 µM peptide, 1 h, filter-sterile supernatant, XVM2 (OD600 = 0.6), LC-MS; for Log10(total_area_MS1) / percent_rel_axenic: incubation 1h; for Log10(total_area_MS1): MS1 precursor area; for percent_rel_axenic: peptide relative to axenic
Method: Elicitors were also supplemented into the medium prior to solidification at a final concentration of 1 µM. The flg22 ([…]) and AtPep1 ([…]) peptides were synthesized by EZbiolab. elf18^R179 (Ac-[…]) and elf18 (Ac-[…]) were synthesized by GenScript and EZbiolab, respectively. […] Bacteria were pelleted by centrifugation (11,600 g, 2 min), and the supernatant was sterile-filtered using filter units with MF-Millipore membrane (0.22 µm; Millex). The supernatant was incubated in boiling water for 30 min for heat treatment. Then, 25 ml of 1× MS with 20 g l^−1 Bacto Agar was mixed with 25 ml of supernatant prior to medium solidification and poured into square petri dishes. Sterilized seeds were placed on solidified agar in square petri dishes and vertically incubated for 14 days.
Bacterial supernatants were prepared as described in ‘Agar-based cultivation of axenic plants and co-cultivation with bacteria, bacterial supernatants and elicitors’. Here, additionally, the peptides dRGF1 (DYSNPGHHP-Hyp-RHN) and PSY1 (D-Y(SO3H)-[…]-Hyp-Hyp-S) synthesized by Scilight Peptide were incubated for 1 h with 1 µM of peptides in a plant cultivation light chamber (day-light condition; see ‘Plant cultivation conditions’), and the samples were frozen at −20 °C until further processing. For the investigation of AtPep1 degradation, the AtPep1 peptide was first modified by acetylation (six to seven times). To this end, 100-µl aliquots of peptides were treated with 10 µl of NHS acetate solution (1 M NHS acetate in 50% ACN/PBS) and incubated for 30 min with shaking. The reaction was quenched by the addition of 100 µl of 100 mM Tris-HCl (pH 8.5) and incubated for 10 min. For comparison of the non-acetylated peptides with the above-described modified AtPep1 peptides, aliquots of the non-acetylated peptides were processed as described above, but without the modifying NHS reaction. To this end, 100-µl aliquots of the sample were mixed with 100 µl of PBS buffer (137 mM NaCl, 2.7 mM KCl, 10 mM Na2HPO4, 1.8 mM KH2PO4; pH 7.4). The samples were then further diluted with 100 µl of 100 mM Tris-HCl (pH 8.5) and incubated for 10 min. All samples were acidified with 5 µl of TFA and desalted using StageTips with C18 Empore disk membranes (3M)[109]. The samples were dried in a vacuum evaporator and dissolved in 10 µl of 2% ACN (0.1% TFA for analysis).
The samples were analysed using an EASY-nLC 1200 (Thermo Fisher) coupled to a QExactive Plus mass spectrometer (Thermo Fisher). Peptides were separated on 16-cm frit-less silica emitters (New Objective, 75 µm inner diameter), packed in-house with reversed-phase ReproSil-Pur C18 AQ 1.9 µm resin (Dr. Maisch). Peptides were loaded on the column and eluted for 50 min using a segmented linear gradient of 5% to 95% solvent B (0 min, 5% B; 0–5 min, 15% B; 5–35 min, 50% B; 35–45 min, 95% B; 45–50 min, 95% B) (solvent A: 0% ACN, 0.1% FA; solvent B: 80% ACN, 0.1% FA) at a flow rate of 300 nl min^−1. Mass spectra were acquired in data-dependent acquisition mode with a TOP10 method. Mass spectrometry spectra were acquired in the Orbitrap analyser with a mass range of 300–1,500 m/z at a resolution of 70,000 full width at half maximum (FWHM) and a target value of 3 × 10^6 ions. Precursors were selected with an isolation window of 1.3 m/z. Higher-energy collision dissociation (HCD) fragmentation was performed at a normalized collision energy of 25. Tandem mass spectrometry (MS/MS) spectra were acquired with a target value of 5 × 10^5 ions at a resolution of 17,500 FWHM, a maximum injection time of 85 ms and a fixed first mass of 100 m/z. Peptides with a charge of 1 or greater than 6 or with an unassigned charge state were excluded from fragmentation for MS/MS; dynamic exclusion for 20 s prevented repeated selection of precursors. The raw data were analysed on the MS1 level using Skyline (https://skyline.ms)[110], and the results were filtered for the respective intact peptides, or the acetylated version in the case of AtPep1. […]

[1] = MF79 gspD mutant supernatant, XVM2 medium, replicate 1
[2] = MF79 gspD mutant supernatant, XVM2 medium, replicate 2
[3] = MF79 gspD mutant supernatant, XVM2 medium, replicate 3
[4] = MF79 supernatant, XVM2 medium, replicate 1
[5] = MF79 supernatant, XVM2 medium, replicate 2
[6] = MF79 supernatant, XVM2 medium, replicate 3
[7] = axenic XVM2 medium control, replicate 2
[8] = axenic XVM2 medium control, replicate 3
[9] = axenic XVM2 medium control, replicate 1

Row | Substance | peptide degradation in culture supernatant of wild-type D. japonica MF79 | peptide depletion in supernatant of the D. japonica MF79 gspD mutant | Log10(total_area_MS1) [1] | Log10(total_area_MS1) [2] | Log10(total_area_MS1) [3] | percent_rel_axenic [1] [%] | percent_rel_axenic [2] [%] | percent_rel_axenic [3] [%] | Log10(total_area_MS1) [4] | Log10(total_area_MS1) [5] | Log10(total_area_MS1) [6] | percent_rel_axenic [4] [%] | percent_rel_axenic [5] [%] | percent_rel_axenic [6] [%] | Log10(total_area_MS1) [7] | Log10(total_area_MS1) [8] | percent_rel_axenic [7] [%] | percent_rel_axenic [8] [%] | Log10(total_area_MS1) [9] | percent_rel_axenic [9] [%]
1 | ATKVKAKQRGKEKVSSGRPGQHN [AtPep1] | similarly effective in degrading | depleted | 0 | 0 | 0 | 0 | 0 | 0 | 7.596 | 7.38 | 6.998 | 0.3481 | 0.2117 | 0.0878 | 10.0991 | 9.961 | 110.888 | 80.7256 |  | 
2 | Ac-SKEKFERTKPHVNVGTIG [elf18] | similarly effective in degrading | depleted | 7.363 | 7.327 | 7.195 | 0.1126 | 0.1036 | 0.0764 | 8.052 | 7.627 | 7.56 | 0.5496 | 0.2067 | 0.1772 | 10.2259 | 10.2716 | 82.063 | 91.1647 | 10.4148 | 126.772
3 | QRLSTGSRINSAKDDAAGLQIA [flg22] | similarly effective in degrading | depleted | 0 | 0 | 0 | 0 | 0 | 0 | 0 | 0 | 0 | 0 | 0 | 0 | 7.393 | 7.844 | 53.5357 | 151.5 | 7.6416 | 94.9639
